Assay results as given in PubChem BioAssay AID206 (DTP/NCI, 2004).
“And” between values parts separate entries of the source, which are not always exact repeats. Equal values may be shown once. Results filed as inconclusive are left out.

Test system: nude mice, HT29 intrarenal xenograft, tumor weight T/C
Assay: NCI In Vivo Anticancer Drug Screen. Data for tumor model HT29;CX-1 Human Adenocarcinoma (MER+) (intrarenal inoculation) in NU/NU Swiss (nude) mice
Conditions: endpoint: mean tumor weight change, higher = larger tumour
In short: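 Compounds were given to mice carrying transplantable tumors; a vehicle-dosed group served as control. The endpoint measured in each group was compared as a T/C quotient.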

[1] = dose: 75.0 mg/kg/injection, schedule: Q04DX004 (sc), vehicle: suspension in saline
[2] = dose: 300.0 mg/kg/injection, schedule: Q04DX004 (sc), vehicle: saline with Tween-80
[3] = dose: 50.0 mg/kg/injection, schedule: Q04DX004 (sc), vehicle: Klucel (hydroxypropylcellulose) (HPC)
[4] = dose: 18.75 mg/kg/injection, schedule: Q04DX004 (sc), vehicle: saline with Tween-80
[5] = dose: 37.5 mg/kg/injection, schedule: Q04DX004 (sc), vehicle: saline with Tween-80
[6] = dose: 800.0 mg/kg/injection, schedule: Q01DX010 (sc), vehicle: Klucel (hydroxypropylcellulose) (HPC)
[7] = dose: 100.0 mg/kg/injection, schedule: Q01DX010 (sc), vehicle: saline with Tween-80
[8] = dose: 200.0 mg/kg/injection, schedule: Q01DX010 (sc), vehicle: saline with Tween-80
[9] = dose: 400.0 mg/kg/injection, schedule: Q01DX010 (sc), vehicle: saline with Tween-80
[10] = dose: 300.0 mg/kg/injection, schedule: Q04DX004 (sc), vehicle: suspension in saline

O=C1c2ccccc2C(=O)c2c3c(cc(NCCNCCO)c21)N(CCO)CCN3
T/C (dose: 100.0 mg/kg/injection, schedule: Q04DX004 (sc), vehicle: DMSO): 168 % of control | T/C (dose: 200.0 mg/kg/injection, schedule: Q04DX004 (sc), vehicle: DMSO): 112 % of control | T/C (dose: 400.0 mg/kg/injection, schedule: Q04DX004 (sc), vehicle: DMSO): 59 % of control | T/C (dose: 800.0 mg/kg/injection, schedule: Q04DX004 (sc), vehicle: DMSO): 104 % of control

C=C(C(=O)O)C(N)C(=O)O (configuration not stated)
T/C (dose: 225.0 mg/kg/injection, schedule: Q04DX004 (sc), vehicle: suspension in saline): 114 % of control | T/C (dose: 450.0 mg/kg/injection, schedule: Q04DX004 (sc), vehicle: suspension in saline): 64 % of control | T/C (dose: 900.0 mg/kg/injection, schedule: Q04DX004 (sc), vehicle: suspension in saline): 109 % of control

CC(=O)C(O)N1C(=O)C=CC1=O (configuration not stated)
T/C (dose: 2.5 mg/kg/injection, schedule: Q01DX010 (sc), vehicle: saline): 123 % of control | T/C (dose: 5.0 mg/kg/injection, schedule: Q01DX010 (sc), vehicle: saline): 107 % of control | T/C (dose: 10.0 mg/kg/injection, schedule: Q01DX010 (sc), vehicle: saline): 52 % of control | T/C (dose: 20.0 mg/kg/injection, schedule: Q01DX010 (sc), vehicle: saline): 30 % of control

CC(=O)CC(=O)CCC(=O)O
T/C (dose: 150.0 mg/kg/injection, schedule: Q04DX004 (sc), vehicle: saline): 111 % of control | T/C (dose: 600.0 mg/kg/injection, schedule: Q04DX004 (sc), vehicle: saline): 113 % of control | T/C (dose: 1200.0 mg/kg/injection, schedule: Q04DX004 (sc), vehicle: saline): 104 % of control

[CH3][Sn]([CH3])([Cl])[S]CCN
T/C (dose: 18.75 mg/kg/injection, schedule: Q04DX004 (sc), vehicle: suspension in saline): 92 % of control | T/C (dose: 37.5 mg/kg/injection, schedule: Q04DX004 (sc), vehicle: suspension in saline): 65 % of control | T/C [1]: 40 % of control

CCC[CH2][Hg][Cl]
T/C (dose: 9.38 mg/kg/injection, schedule: Q04DX004 (sc), vehicle: Klucel (hydroxypropylcellulose) (HPC)): 83 % of control | T/C (dose: 18.75 mg/kg/injection, schedule: Q04DX004 (sc), vehicle: Klucel (hydroxypropylcellulose) (HPC)): 72 % of control | T/C (dose: 37.5 mg/kg/injection, schedule: Q04DX004 (sc), vehicle: Klucel (hydroxypropylcellulose) (HPC)): 45 % of control

Cn1c2nc(=O)n(-c3ccccc3)c(=O)c-2nc2c1CCCC2
T/C (dose: 150.0 mg/kg/injection, schedule: Q04DX004 (sc), vehicle: saline with Tween-80): 106 % of control | T/C [2]: 32 % of control

O=[Te]=O
T/C (dose: 25.0 mg/kg/injection, schedule: Q04DX004 (sc), vehicle: Klucel (hydroxypropylcellulose) (HPC)): 170 % of control | T/C [3]: 74 % of control

NC(=O)/C=C/c1c[nH]c2nccnc12
T/C (dose: 25.0 mg/kg/injection, schedule: Q04DX004 (sc), vehicle: water): 114 % of control | T/C (dose: 50.0 mg/kg/injection, schedule: Q04DX004 (sc), vehicle: water): 64 % of control | T/C (dose: 100.0 mg/kg/injection, schedule: Q04DX004 (sc), vehicle: water): 86 % of control | T/C (dose: 200.0 mg/kg/injection, schedule: Q04DX004 (sc), vehicle: water): 102 % of control

O=C1C2CC=CCC2C(=O)N1SC(Cl)(Cl)Cl (configuration not stated)
T/C [4]: 96 % of control | T/C [5]: 88 % of control | T/C [2]: 101 % of control | T/C (dose: 600.0 mg/kg/injection, schedule: Q04DX004 (sc), vehicle: saline with Tween-80): 71 % of control

COC(=O)C(F)C(Br)C(=O)OC (configuration not stated)
T/C (dose: 9.37 mg/kg/injection, schedule: Q04DX004 (sc), vehicle: saline with Tween-80): 207 % of control | T/C [4]: 68 % of control | T/C [5]: 223 % of control

OCCCN1CCCCC1CO (configuration not stated)
T/C (dose: 225.0 mg/kg/injection, schedule: Q04DX004 (sc), vehicle: saline): 106 % of control | T/C (dose: 450.0 mg/kg/injection, schedule: Q04DX004 (sc), vehicle: saline): 89 % of control | T/C (dose: 900.0 mg/kg/injection, schedule: Q04DX004 (sc), vehicle: saline): 92 % of control

O=C([CH-]C(=O)C(F)(F)F)c1ccccc1.O=C([CH-]C(=O)C(F)(F)F)c1ccccc1.O=C([CH-]C(=O)C(F)(F)F)c1ccccc1.O=C([CH-]C(=O)C(F)(F)F)c1ccccc1.[Eu+3].c1ccncc1
T/C [6]: 10 % of control and 20 % of control (2×)

Cc1cc(N2C(=O)CCSC2=S)ccc1Cl
T/C (dose: 75.0 mg/kg/injection, schedule: Q04DX004 (sc), vehicle: Klucel (hydroxypropylcellulose) (HPC)): 37 % of control | T/C (dose: 150.0 mg/kg/injection, schedule: Q04DX004 (sc), vehicle: Klucel (hydroxypropylcellulose) (HPC)): 55 % of control | T/C (dose: 300.0 mg/kg/injection, schedule: Q04DX004 (sc), vehicle: Klucel (hydroxypropylcellulose) (HPC)): 30 % of control

C[n+]1ccc(Nc2ccc(NC(=O)c3ccc(Nc4cc[n+](C)c5ccc(N)cc45)cc3)cc2)cc1
T/C (dose: 8.0 mg/kg/injection, schedule: Q04DX004 (sc), vehicle: distilled water + Tween-80): 74 % of control | T/C (dose: 16.0 mg/kg/injection, schedule: Q04DX004 (sc), vehicle: distilled water + Tween-80): 211 % of control | T/C (dose: 25.0 mg/kg/injection, schedule: Q04DX004 (sc), vehicle: distilled water + Tween-80): 118 % of control | T/C (dose: 32.0 mg/kg/injection, schedule: Q04DX004 (sc), vehicle: distilled water + Tween-80): 303 % of control | T/C (dose: 50.0 mg/kg/injection, schedule: Q04DX004 (sc), vehicle: distilled water + Tween-80): 51 % of control

CCOC(=O)c1ccc(NC(=O)Nc2nccs2)cc1
T/C [7]: 54 % of control | T/C [8]: 58 % of control | T/C [9]: 74 % of control | T/C (dose: 800.0 mg/kg/injection, schedule: Q01DX010 (sc), vehicle: saline with Tween-80): 67 % of control

COC1CC(C)C(OC)c2cc(O)cc(c2O)NC(=O)/C(C)=C/C=C\C(C)C(OC(N)=O)/C(C)=C\C(C)C1OC (configuration not stated)
T/C (dose: 50.0 mg/kg/injection, schedule: Q04DX004 (sc), vehicle: saline + alcohol): 113 % of control

O=C1NC(c2ccccc2)N=C2Oc3ccccc3C=C12 (configuration not stated)
T/C (dose: 50.0 mg/kg/injection, schedule: Q01DX010 (sc), vehicle: saline with Tween-80): 115 % of control | T/C [7]: 155 % of control | T/C [8]: 77 % of control | T/C [9]: 54 % of control

c1ccc([C@H]2CN3CCSC3=N2)cc1
T/C (dose: 15.0 mg/kg/injection, schedule: Q04DX004 (sc), vehicle: saline): 152 % of control | T/C (dose: 30.0 mg/kg/injection, schedule: Q04DX004 (sc), vehicle: saline): 114 % of control

N#CC(C#N)=C/C=C/c1cccc([N+](=O)[O-])c1
T/C (dose: 100.0 mg/kg/injection, schedule: Q01DX010 (sc), vehicle: Klucel (hydroxypropylcellulose) (HPC)): 40 % of control | T/C (dose: 200.0 mg/kg/injection, schedule: Q01DX010 (sc), vehicle: Klucel (hydroxypropylcellulose) (HPC)): 38 % of control | T/C (dose: 400.0 mg/kg/injection, schedule: Q01DX010 (sc), vehicle: Klucel (hydroxypropylcellulose) (HPC)): 74 % of control | T/C [6]: 61 % of control

CN(C)N=Nc1cccc(C(N)=O)c1
T/C [3]: 92 % of control and 116 % of control

N=c1nc2n(cc1F)[C@@H]1O[C@H](CO)[C@@H](O)[C@@H]1O2
T/C [10]: 61 % of control | T/C (dose: 1200.0 mg/kg/injection, schedule: Q04DX004 (sc), vehicle: suspension in saline): 60 % of control

COC1C(/C=C/C(C)=O)OC2OC(C)(C)OC21 (configuration not stated)
T/C [1]: 74 % of control | T/C (dose: 150.0 mg/kg/injection, schedule: Q04DX004 (sc), vehicle: suspension in saline): 106 % of control | T/C [10]: 54 % of control | T/C (dose: 600.0 mg/kg/injection, schedule: Q04DX004 (sc), vehicle: suspension in saline): 20 % of control

O=C1c2ccccc2C(=O)c2c(NCCNCCO)ccc(O)c21
T/C (dose: 25.0 mg/kg/injection, schedule: Q04DX004 (sc), vehicle: suspension in saline): 74 % of control | T/C (dose: 50.0 mg/kg/injection, schedule: Q04DX004 (sc), vehicle: suspension in saline): 73 % of control | T/C (dose: 100.0 mg/kg/injection, schedule: Q04DX004 (sc), vehicle: suspension in saline): 111 % of control
